Holding throughout (type): cell-based, human
The subject of assay [1] is U-2 OS cells. The assay can be described thus: Western blot analysis of p53, p21 expression. The settings on record: 24 hours, (R)-5a effect at 5 and 10 μM. A general note: A western blot detects proteins with antibodies after separation by electrophoresis.
The subject of assay [2] is U-2 OS cells. In words: Real-time PCR of p53-target genes. As to conditions: 6 hours, 10 μM (R)-5a, 5 μM RG7388, normalized to GAPDH. For orientation: In qPCR the cycle at which signal appears reflects the starting amount.
Assay [3] has as its system U-2 OS cells. The assay can be described thus: Cell cycle analysis. The settings on record: 24 hours, 5 μM, control 55%.
In assay [4] the test system is SJSA-1 cells. The assay can be described thus: Caspase 3/7 activity assay. As to conditions: SJSA-1, 24 or 48 hours.
For assay [5], the system named is U-2 OS cells. The assay can be described thus: Caspase 3/7 activity assay. The settings on record: 24 or 48 hours.

The source of these data is publication PMC6634946 (The FEBS journal, 2019).

For the molecule `COc1ccc(C2=N[C@@H](c3ccc(Cl)cc3)[C@@H](c3ccc(Cl)cc3)N2C(=O)N2CCNC(=O)C2)c(OC(C)C)c1` [Nutlin-3], the “expression of p53 and p21 protein” value in assay [1] is “increased the expression of p21 and p53”.

In the case of `COc1cc(C(=O)O)ccc1NC(=O)[C@@H]1N[C@@H](CC(C)(C)C)[C@](C#N)(c2ccc(Cl)cc2F)[C@H]1c1cccc(Cl)c1F` [RG7388, Idasanutlin], the “expression of p53 and p21 protein” value in assay [1] was “increased the expression of p21 and p53”. In assay [2], the “MDM2 and CDKN1A transcripts” value is “significant increase of MDM2 and CDKN1A transcripts”. In assay [3], the “percentage of S-phase cells” value amounted to 0.5%. The results for the “induction of apoptosis (caspase 3/7 activity)” value in assay [4] and in assay [5] were “induced apoptosis only in SJSA-1 cells” and “not in U-2 OS cells”, respectively.

With `CN[C@@H]1C[C@H]2O[C@@](C)([C@@H]1OC)n1c3ccccc3c3c4c(c5c6ccccc6n2c5c31)C(=O)NC4` [Staurosporine], the “induction of apoptosis (caspase 3/7 activity)” value in assay [4] and in assay [5] was “induced apoptosis in both cell lines” throughout.
